Results from patent publication US20160199463A1, “HDAC2 DEFENDS VASCULAR ENDOTHELIUM FROM INJURY” (The Johns Hopkins University, priority 2014, published 2016).

Key:
Arg2 = Arg2 protein expression in HAECs (Western blot); assay type: cell-based, human; settings: MS275 2 μmol/L; CI994 1 μmol/L; MC1568 0.5 μmol/L; PC34051 100 nmol/L; MGCD0103 1 μmol/L
Experimental: After 48 hrs of HAEC cells transfection, cells were lysed in ice cold RIPA lysis buffer consisting of 20 mM Tris-HCl at pH 7.5, 150 mM NaCl, 1 mM EDTA, 1 mM EGTA, 1% NP40, 1% sodium deoxycholate, 1 mM Na3VO4, 2.5 mM sodium pyrophosphate, 1 mM 3-glycerophosphate, 1 μg/mL leupeptin, and a 1:1000 diluted protease inhibitor cocktail (Sigma). For immunoprecipitation studies, whole cell lysate lysates were centrifuged at 14,000×g and supernatants were precleared by incubation with Protein A/G-agarose beads for 2 h at 4° C. with rocking. Agarose beads were then pelleted by centrifugation at 1,000×g. FLAG-Arg2 in precleared lysates were immunoprecipitated by incubation overnight at 4° C. with rocking following addition of anti-FLAG antibody (10 μl). Immune complexes were eluted in 2×SDS sample buffer by boiling for 5 minutes before loading into SDS-PAGE. Western blotting analysis was performed by transferring the SDS gel onto a PVDF membrane and visualized using secondary antibodies conjugated to alkaline phosphatases.

HDAC1A = settings: cited from earlier work

For `Cn1c(/C=C/C(=O)NO)ccc1/C=C/C(=O)c1cccc(F)c1` [MC1658], the “endothelial Arg2 expression, class-specific HDAC inhibitors” value (Arg2) is given as “no substantial effects” and the IC50 (HDAC1A) is given as 100 nM.
